Experiments:
Assay type in all cases: physicochemical
[1] = Separatory funnel phase separation of 1,2,5-thiadiazole and water; conditions: 10 ml 1,2,5-thiadiazole and 10 ml water, shaken vigorously, allowed to stand
Method: A 10 ml of 1,2,5-thiadiazole and 10 ml of water were put into a separatory funnel, and the system was shaken vigorously, to be allowed to stand.

[2] = Compatibility of 1,2,5-thiadiazole with other solvents; set-up: key: ◯: Circle: fully compatible to give a uniform mixture; Triangle: giving a white turbidity; X-mark: being divided into two phases; conditions: 1,2,5-thiadiazole mixed with the listed solvent at volume ratio 1/1 (2 ml), room temperature, visual inspection
Method: For 1,2,5-thiadiazole of the present invention, its compatibility with other solvents was studied. The test consisted of mixing 1,2,5-thiadiazole with another solvent at a volume ratio of 1/1 (2 ml), allowing the system to stand at room temperature, and visually inspecting the compatibility of the former with the latter.
Circle: fully compatible to give a uniform mixture
Triangle: giving a white turbidity
X-mark: being divided into two phases

[3] = Dissolving capability: amount of solvent needed to completely dissolve 20 mg of compound; conditions: 20 mg compound, room temperature; for Addition amount of solvent until compound completely dissolved (Example 3): solvent 1,2,5-thiadiazole, stirring; for Amount of solvent required for completely dissolving the compound (Comp. Ex. 1): solvent chloroform; for Amount of solvent required for completely dissolving the compound (Comp. Ex. 2): solvent diethylether
Method: The dissolving capability of 1,2,5-thiadiazole of the present invention was studied. A 20 mg of each of compounds 1 to 20 was transferred into a sample vial, to which 1,2,5-thiadiazole was added at room temperature with stirring. The addition was continued until the compound was completely dissolved, and the addition amount of the solvent was determined.
The same procedure as in Example 3 was repeated except that 1,2,5-thiadiazole was replaced with chloroform. The amount of the solvent required for completely dissolving the compound was determined.
The same procedure as in Example 3 was repeated except that 1,2,5-thiadiazole was replaced with diethylether. The amount of the solvent required for completely dissolving the compound was determined.

[4] = Extracting activity: partition of compound between water phase and organic phase (TLC); conditions: for Ratio of content of compound in water phase against organic phase (Example 4): 2 mg compound in 100 μl 1,2,5-thiadiazole + 100 μl distilled water; for Ratio of content of compound in water phase against organic phase (Comp. Ex. 3): 2 mg compound in 100 μl chloroform + 100 μl distilled water; for Ratio of content of compound in water phase against organic phase (Comp. Ex. 4): 2 mg compound in 100 μl diethylether + 100 μl distilled water
Method: The extracting activity of 1,2,5-thiadiazole of the present invention was studied. A 2 mg of each of compounds 1 to 20 was dissolved in 100 μl of 1,2,5-thiadiazole, to which 100 μl of distilled water was added, and the system was subjected to separation operation. The ratio of the content of the compound in water phase against the counterpart in organic phase was determined using TLC, and the results are shown in Table 3.
The same procedure as in Example 4 was repeated except that 1,2,5-thiadiazole was replaced with chloroform, to determine the comparative extracting activity of chloroform.
The same procedure as in Example 4 was repeated except that 1,2,5-thiadiazole was replaced with diethylether, to determine the comparative extracting activity of diethylether.

Row | Compound | Addition amount of solvent until compound completely dissolved (Example 3) [3] [µL] | Amount of solvent required for completely dissolving the compound (Comp. Ex. 1) [3] | Amount of solvent required for completely dissolving the compound (Comp. Ex. 2) [3] | Ratio of content of compound in water phase against organic phase (Example 4) [4] | Ratio of content of compound in water phase against organic phase (Comp. Ex. 3) [4] | Ratio of content of compound in water phase against organic phase (Comp. Ex. 4) [4] | Phase separation from water [1] | Compatibility [2]
1 | 1,2,5-thiadiazole | – | – | – | – | – | – | clearly divided into two phases | –
2 | CC(C)=O [Acetone] | – | – | – | – | – | – | – | ◯
3 | CC#N [Acetonitrile] | – | – | – | – | – | – | – | ◯
4 | c1ccccc1 [Benzene] | – | – | – | – | – | – | – | ◯
5 | O=C1Cc2ccccc2N1 [Compound 1] | 100 | 400 µL | 2000 µL | 1/100 | 1/10 | 1/5 | – | –
6 | COCOc1cc(OCOC)c2c(c1)C(S(=O)(=O)c1ccccc1)OC2=O (stereo not drawn) [Compound 4] | 1000 | Hardly soluble | Hardly soluble | 0/100 | Hardly soluble | Hardly soluble | – | –
7 | O=C(O)CNC(=O)OCc1ccccc1 [Compound 5] | 1000 | 2000 µL | 2000 µL | 0/100 | 1/5 | 0/100 | – | –
8 | Cc1ccc(S(=O)(=O)O[C@@H]2C(C)O[C@@H](OCc3ccccc3)C3OC(=O)OC32)cc1 (stereo partly drawn) [Compound 9] | 20 | 200 µL | 6000 µL | 0/100 | 0/100 | 0/100 | – | –
9 | CC(C)(C)[Si](C)(C)OCC1=CC2(OCCO2)C(O)C(O)C1=O (stereo not drawn) [Compound 11] | 200 | 400 µL | Hardly soluble | – | – | – | – | –
10 | CN(C)C=O [Dimethylformamide] | – | – | – | – | – | – | – | ◯
11 | CCO [Ethanol] | – | – | – | – | – | – | – | ◯
12 | CCOC(C)=O [Ethyl acetate] | – | – | – | – | – | – | – | ◯
13 | CO [Methanol] | – | – | – | – | – | – | – | ◯
14 | Cc1ccccc1 [Toluene] | – | – | – | – | – | – | – | ◯
15 | O [Water] | – | – | – | – | – | – | – | X
16 | CCCCCC [n-Hexane] | – | – | – | – | – | – | – | ◯
17 | Xylene | – | – | – | – | – | – | – | ◯

Continued, in another order:

Row | Addition amount of solvent until compound completely dissolved (Example 3) [3] [µL] | Amount of solvent required for completely dissolving the compound (Comp. Ex. 1) [3] | Amount of solvent required for completely dissolving the compound (Comp. Ex. 2) [3] | Ratio of content of compound in water phase against organic phase (Example 4) [4] | Ratio of content of compound in water phase against organic phase (Comp. Ex. 3) [4] | Ratio of content of compound in water phase against organic phase (Comp. Ex. 4) [4] | Compound | Phase separation from water [1] | Compatibility [2]
18 | 140 | 240 µL | 1600 µL | 0/100 | 1/50 | 1/4 | CO[C@H]1OC(COCc2ccccc2)[C@H](N=[N+]=[N-])CC1NS(=O)(=O)c1ccc(C)cc1 (stereo partly drawn) [Compound 2] | – | –
19 | 160 | 200 µL | Insoluble | 1/5 | 4/5 | Hardly soluble | O=C1C(OCc2ccccc2)=C[C@@H](CO)[C@@H]1CO [Compound 3] | – | –
20 | 1000 | 2000 µL | Hardly soluble | 0/100 | 1/5 | Hardly soluble | Cc1ccc(S(=O)(=O)OCCC2(CCS(=O)(=O)c3ccccc3)OCCO2)cc1 [Compound 6] | – | –
21 | 100 | 200 µL | 2000 µL | 0/100 | 0/100 | 0/100 | CC(=O)Oc1ccc(OC(C)=O)c(OC(C)=O)c1 [Compound 7] | – | –
22 | 200 | 240 µL | 1600 µL | 1/15 | 1/15 | 1/15 | CO[C@H]1OC2COC(c3ccccc3)O[C@H]2C(O)C1NS(=O)(=O)c1ccc(C)cc1 (stereo partly drawn) [Compound 8] | – | –
23 | 200 | 400 µL | Hardly soluble | 0/100 | 1/100 | Hardly soluble | COCOc1cc(OC)c(OC)c2c1C(=O)OC2 [Compound 10] | – | –
24 | 200 | 200 µL | 200 µL | – | – | – | CC/C=C(\C)CN1C(=O)OC[C@H]1C(C)C [Compound 12] | – | –
25 | 100 | 100 µL | 2000 µL | – | – | – | O=C1C=CC2(C=C1CO)OCCO2 [Compound 14] | – | –
26 | 100 | 100 µL | 2400 µL | – | – | – | CC1(C)OCc2cc(OCCO)ccc2O1 [Compound 15] | – | –
27 | 100 | 100 µL | 200 µL | – | – | – | COCCCCC(O)C(O)C(=O)OC (stereo not drawn) [Compound 16] | – | –
28 | 40 | 40 µL | 4000 µL | – | – | – | Cc1oc2ccccc2c(=O)c1C [Compound 17] | – | –
29 | 200 | 200 µL | 200 µL | – | – | – | CC(=O)OCC1OCCC(OC(C)=O)[C@@H]1OC(C)=O (stereo partly drawn) [Compound 18] | – | –
30 | 100 | 100 µL | 4800 µL | – | – | – | CCCCCC(=O)CC(=O)NC1CCOC1=O (stereo not drawn) [Compound 19] | – | –
